Assay results from paper PMC7056318, “An algal enzyme required for biosynthesis of the most abundant marine carotenoids” (Science Advances, 2020).

Tests used:
Type in all cases: biochemical
PtVDL1 = target: T1, PtVDL1 (Phaeodactylum tricornutum, UniProt B7G087); assay: HPLC tautomerase assay, dose-response
T1 construct: gene VDL1
T1 sequence (B7G087 112-453): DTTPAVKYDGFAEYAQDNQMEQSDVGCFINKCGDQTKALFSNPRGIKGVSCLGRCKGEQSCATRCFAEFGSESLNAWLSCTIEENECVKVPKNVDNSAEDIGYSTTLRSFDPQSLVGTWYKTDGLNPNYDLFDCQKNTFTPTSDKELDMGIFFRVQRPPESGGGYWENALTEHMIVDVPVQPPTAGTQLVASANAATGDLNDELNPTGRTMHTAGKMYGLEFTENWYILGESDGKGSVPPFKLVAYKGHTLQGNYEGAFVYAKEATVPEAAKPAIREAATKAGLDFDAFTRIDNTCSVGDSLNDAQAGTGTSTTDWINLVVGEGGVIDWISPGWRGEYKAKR

PtVDE = target: T2, PtVDE (Phaeodactylum tricornutum, UniProt B7FUR6); assay: HPLC de-epoxidase assay, dose-response
T2 construct: gene VDE
T2 sequence (B7FUR6 105-437): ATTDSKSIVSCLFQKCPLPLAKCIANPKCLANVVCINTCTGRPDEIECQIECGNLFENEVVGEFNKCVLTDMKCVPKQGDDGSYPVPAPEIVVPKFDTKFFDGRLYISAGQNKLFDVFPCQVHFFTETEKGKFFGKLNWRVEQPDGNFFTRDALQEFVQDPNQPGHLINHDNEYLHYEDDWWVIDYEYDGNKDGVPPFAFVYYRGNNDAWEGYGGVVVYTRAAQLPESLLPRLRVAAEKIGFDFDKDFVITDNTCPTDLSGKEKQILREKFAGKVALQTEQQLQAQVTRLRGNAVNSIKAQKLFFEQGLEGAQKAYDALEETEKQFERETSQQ

VDL1 from T. pseudonana = target: T3, VDL1 from T. pseudonana (Thalassiosira pseudonana, UniProt B8C0W7); assay: HPLC, conversion of violaxanthin to neoxanthin; settings: pH 5.2, 20 °C, MGDG, 3 h
T3 construct: gene THAPSDRAFT_22076
T3 sequence (B8C0W7 103-423): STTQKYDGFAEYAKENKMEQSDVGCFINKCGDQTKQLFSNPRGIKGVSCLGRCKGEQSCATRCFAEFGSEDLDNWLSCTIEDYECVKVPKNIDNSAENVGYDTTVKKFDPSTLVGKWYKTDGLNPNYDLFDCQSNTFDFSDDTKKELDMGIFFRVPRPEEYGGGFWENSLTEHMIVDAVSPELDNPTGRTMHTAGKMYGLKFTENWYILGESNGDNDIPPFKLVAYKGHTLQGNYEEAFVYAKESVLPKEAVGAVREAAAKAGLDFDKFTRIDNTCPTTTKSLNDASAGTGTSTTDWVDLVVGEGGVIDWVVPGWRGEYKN

SMILES | IC50 (PtVDL1) | IC50 (PtVDE) | HPLC, conversion of violaxanthin to neoxanthin (VDL1 from T. pseudonana)
OC(CS)C(O)CS (stereo not drawn) [DTT] | 73 mM | 680 µM | –
CC(/C=C/C=C(C)/C=C/[C@@]12O[C@]1(C)C[C@@H](O)CC2(C)C)=C\C=C\C=C(C)\C=C\C=C(C)\C=C\[C@@]12O[C@]1(C)C[C@@H](O)CC2(C)C [violaxanthin] | – | – | also showed violaxanthin-neoxanthin tautomerase activity in vitro
